Key:
[1] = biological target: T1, wildtype PRPK recombinant GST protein (Homo sapiens, UniProt Q96S44); test: In vitro binding assay, drug-conjugated Sepharose 4B beads with GST-PRPK; details: pull-down with drug-conjugated Sepharose 4B beads
T1 sequence (Q96S44 1-253): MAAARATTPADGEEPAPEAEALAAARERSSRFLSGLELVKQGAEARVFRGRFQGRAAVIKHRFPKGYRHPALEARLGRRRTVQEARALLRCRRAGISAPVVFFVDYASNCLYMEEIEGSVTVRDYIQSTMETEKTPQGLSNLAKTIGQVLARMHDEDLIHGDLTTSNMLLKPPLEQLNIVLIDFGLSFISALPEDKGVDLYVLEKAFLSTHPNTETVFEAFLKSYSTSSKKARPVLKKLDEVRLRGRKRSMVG
Description: (§1) The interaction between rocuronium bromide and PRPK, and the inhibition of PRPK phosphorylation by rocuronium bromide was evaluated. In vitro and ex vivo binding assays were conducted using GST-PRPK or A431 cell lysates and rocuronium bromide-conjugated Sepharose 4B beads. FIG. 13A is a photograph illustrating a chromatographic plate showing the interaction and binding of PRPK with rocuronium bromide in A431 cells. FIG. 13B is a photograph illustrating a chromatographic plate showing the interaction and binding of rocuronium bromide with wildtype PRPK recombinant GST protein.
as §1, with “betamethasone 17-valerate” for “rocuronium bromide”, “using recombinant” for “using”, “betamethasone 17-valerate-conjugated” for “rocuronium bromide-conjugated”, “14A” for “13A”, “14B” for “13B”

[2] = Absorption of sUV wavelengths by the PRPK inhibitors; assay type: physicochemical; details: for absorption of sUV wavelengths: UVB or UVA range (280 to 400 nm)
Description: To assess whether the effectiveness of rocuronium bromide or betamethasone 17-valerate was related to absorption or attenuation of sUV wavelengths, instead of or in addition to inhibition of PRPK phosphorylation, absorption of sUV wavelengths by rocuronium bromide or betamethasone 17-valerate was evaluated. […] The maximum absorption wavelength for rocuronium bromide was 227 nm, and that for betamethasone-17-valerate was 240 nm.

[3] = system: cyclobutane pyrimidine dimers (CPD); test: Cyclobutane pyrimidine dimer (CPD) formation in skin of SKH1 hairless mice exposed to acute SSL; assay type: in vivo, mouse; details: topical 0.1% or 1%
Description: The effect of rocuronium bromide treatment and betamethasone 17-valerate treatment on the formation of cyclobutene pyrimidine dimers was evaluated. sUV-induced DNA damage, predominantly observed as the formation of cyclobutane pyrimidine dimers (CPD), is recognized as an important molecular trigger for the initiation of sUV-induced immunosuppression and carcinogenesis in the skin. FIG. 19A is a chart comparing effect of rocuronium bromide treatment and betamethasone 17-valerate treatment on the formation of cyclobutene pyrimidine dimers in skin tissues from SKH1 hairless mice exposed to acute SSL. FIG. 19C is a photographic array comparing amount of CPD in immunologically stained control mouse skin samples. FIG. 19D is a photographic array comparing amount of CPD in immunologically stained mouse skin samples exposed only to a vehicle. FIG. 19E is a photographic array comparing amount of CPD in immunologically stained mouse skin samples exposed to rocuronium bromide alone. FIG. 19F is a photographic array comparing amount of CPD in immunologically stained mouse skin samples exposed to betamethasone 17-valerate alone. FIG. 19G is a photographic array comparing amount of CPD in immunologically stained mouse skin samples exposed to SSL alone. FIG. 19H is a photographic array comparing amount of CPD in immunologically stained mouse skin samples exposed to SSL with the vehicle. […]

[4] = system: SSL-induced skin carcinogenesis in SKH-1 hairless mice; test: Chronic SSL-induced skin carcinogenesis in SKH-1 hairless mice (early-stage and late-stage prevention models); assay type: in vivo, mouse; details: for SSL-induced neovascularization in tumor areas: early- and late-stage models (FIGS. 23, 24A, 24B); for SSL-induced skin carcinogenesis: topical cream 0.1% or 1%; for Ki-67 expression / PRPK phosphorylation: skin staining, FIGS. 23, 24A, 24B
Description: The effectiveness of rocuronium bromide (EXAMPLES 11 and 12) and betamethasone 17-valerate (EXAMPLE 13) in mouse models of chronic sUV-induced skin carcinogenesis was evaluated. Female SKH-1 hairless mice (5 weeks old, Charles River, Burlington, MA) were used. Skin carcinogenesis was induced by SSL-irradiation source lamps. […] For topical treatment to the dorsal mouse skin, cream (oil-in-water emulsions) containing 0.1% or 1% (0.1 or 1 mg in 100 μl) of rocuronium bromide or betamethasone 17-valerate were prepared. The models included early-stage prevention models (EXAMPLE 11) and a late-stage prevention models (EXAMPLES 12 and 13). […] SSL treatment was for 15 weeks and the drug cream was continued for 29 weeks. In the late-stage model, mice received SSL for 15 weeks at which time they began receiving topical application with rocuronium bromide or betamethasone 17-valerate. For the early stage model, SKH-1 hairless mice were divided into groups as follows: Groups 1 and 2 were negative control groups, untreated and treated with only cream vehicle with no SSL exposure; Group 3=1% rocuronium bromide; Group 4=SSL alone without cream; Group 5=SSL with cream only; Group 6=0.1% rocuronium bromidein cream with SSL; Group 7=1% rocuronium bromide in cream with SSL. For the late stage models, groups were as follows: Groups 8 and 9 were negative control groups, untreated and treated with only cream vehicle with no SSL exposure; Group 10=1% rocuronium bromide only; Group 11=1% betamethasone 17-valerate only; Group 12=SSL alone with cream; Group 13=SSL with 0.1% rocuronium bromide; Group 14=1% rocuronium bromide in cream with SSL; Group 15=0.1% betamethasone 17-valerate in cream with SSL; and Group 16=1% […] betamethasone 17-valerate in cream with SSL. An antibiotic ointment was applied to the eyes of each mouse prior to SSL exposure and body weight and tumor volume were measured each week.

PRPK in A431 lysates = biological target: T2, PRPK in A431 lysates (Homo sapiens, UniProt Q96S44); test: Ex vivo binding assay, drug-conjugated Sepharose 4B beads with A431 cell lysates; details: pull-down with drug-conjugated Sepharose 4B beads
T2 construct: endogenous in cells; host or cells: A431
T2 sequence (Q96S44 1-253): T1 sequence (Q96S44 1-253)
Description: as §1
as §1, with “betamethasone 17-valerate” for “rocuronium bromide”, “using recombinant” for “using”, “betamethasone 17-valerate-conjugated” for “rocuronium bromide-conjugated”, “14A” for “13A”, “14B” for “13B”

Row | SMILES | binding to GST-PRPK [1] | maximum absorption wavelength [2] | absorption of sUV wavelengths [2] | sUV-induced CPD production [3] | levels of COX-2 in SKH-1 hairless mouse skin ([4]; FIGS. 20C, 21C) | levels of MMP-9 in SKH-1 hairless mouse skin ([4]; FIGS. 20C, 21C) | levels of cyclin D1 in SKH-1 hairless mouse skin ([4]; FIGS. 20C, 21C) | levels of phosphorylated PRPK in SKH-1 hairless mouse skin ([4]; FIGS. 20C, 21C) | SSL-induced neovascularization in tumor areas [4] | tumor volume ([4]; early-stage model (FIG. 20A)) | tumor number ([4]; early-stage model (FIG. 20B)) | SSL-induced skin carcinogenesis ([4]; early-stage model) | tumor number ([4]; late-stage model) | tumor volume ([4]; late-stage model) | SSL-induced skin carcinogenesis ([4]; late-stage model) | Ki-67 expression [4] | PRPK phosphorylation [4] | binding to PRPK in A431 lysates (PRPK in A431 lysates)
1 | C=CC[N+]1([C@H]2C[C@H]3[C@@H]4CC[C@H]5C[C@H](O)[C@@H](N6CCOCC6)C[C@]5(C)[C@H]4CC[C@]3(C)[C@H]2OC(C)=O)CCCC1 [rocuronium bromide] | binds | 227 nm | do not Substantially Absorb or Block | reduced | suppressed | suppressed | suppressed | suppressed | inhibited | decreased | decreased | reduced | decreased | decreased | reduced | inhibited | inhibited | binds
2 | CCCCC(=O)O[C@]1(C(=O)CO)[C@@H](C)C[C@H]2[C@@H]3CCC4=CC(=O)C=C[C@]4(C)[C@@]3(F)[C@@H](O)C[C@@]21C [betamethasone 17-valerate] | binds | 240 nm | do not Substantially Absorb or Block | reduced |  |  |  |  | inhibited |  |  |  | reduces | reduces | reduced | inhibited | inhibited | binds
